Patent US10829520B2, “Beta-hairpin peptidomimetics” (POLYPHOR AG, priority 2015, dated 2020)
Where a SMILES comes first, the peptide text is derived from it. Bridges are numbered along the chain shown (N, C = ends). [ ]: non-standard residue; d: D form. The star is where a group is joined. NαAmidinoTrp = N=C(N)N[C@@H](Cc1c[nH]c2ccccc12)C(=O)*; Hyp = O=C(O)[C@@H]1C[C@@H](O)CN1; Pen = CC(C)(S)[C@H](N)C(=O)O; dDab = NCC[C@@H](N)C(=O)O; hCys = N[C@@H](CCS)C(=O)O; Dab = NCC[C@H](N)C(=O)O; Sar = CNCC(=O)O

Experiments:
Type in all cases: cell-based
[1] = test system: Pseudomonas aeruginosa ATCC 27853; details: ATCC 27853
Protocol: (§1) Lyophilized peptides were weighed on a Microbalance (Mettler MT5) and dissolved in sterile water to a final concentration of 1 mg/mL. Stock solutions were kept at +4° C., light protected.
(§2) The in vitro antimicrobial activities of the peptides were determined in 96-well plates (Greiner, polystyrene) by the standard CLSI broth microdilution method (Clinical and Laboratory Standards Institute 2014. Performance standards for antimicrobial susceptibility testing, 24th informational supplement. Approved standard CLSI M100-S24; Clinical and Laboratory Standards Institute, Wayne, Pa.). Inocula of the microorganisms were diluted into Mueller-Hinton II (MH-cation adjusted) broth and compared with a 0.5 McFarland standard to give appr. 10^6 colony forming units (CFU)/mL. Aliquots (90 μL) of inoculate were added to 10 μL of MH-II broth+P-80 (Polysorbate 80, 0.002% final concentration, v/v) containing the peptide in serial two-fold dilutions. The following microorganisms were used to determine antibiotic activity of the peptides: Escherichia coli ATCC 25922, Klebsiella pneumoniae SSI #3010^a), Acinetobacter baumannii DSM 30008, Pseudomonas aeruginosa ATCC 27853 and the clinical isolates Escherichia coli 926415^b), Klebsiella pneumoniae 968733^b) and Acinetobacter baumannii 872842^b). Antimicrobial activities of the peptides were expressed as the minimal inhibitory concentration (MIC) in μg/mL at which no visible growth was observed after 18-20 hours of incubation at 35° C. ^a) Obtained from Statens Serum Institut (SSI), Copenhagen, Denmark^b) Obtained from International Health Management Associates, Inc. (IHMA Europe Sàrl), Epalinges, Switzerland

[2] = test system: Acinetobacter baumannii DSM 30008; details: DSM 30008
Protocol: as §1, §2

[3] = test system: Escherichia coli ATCC 25922; details: ATCC 25922
Protocol: as §1, §2

[4] = test system: Klebsiella pneumoniae SSI #3010; details: SSI #3010
Protocol: as §1, §2

[5] = test system: human red blood cells (hRBC); test: Hemolysis of human red blood cells; details: red cells of human, 1 h, 100 μg/mL
Protocol: as §1
The peptides were tested for their hemolytic activity against human red blood cells (hRBC). Fresh hRBC were washed three times with phosphate buffered saline (PBS) and centrifuged for 10 min at 2000×g. Compounds (100 μg/mL) were incubated with 20% hRBC (v/v) for 1 h at 37° C. and shaking at 300 rpm. The final erythrocyte concentration was approximately 0.9×10^9 cells/mL. A value of 0% and 100% cell lyses, respectively, was determined by incubation of hRBC in the presence of PBS containing 0.001% acetic acid and 2.5% Triton X-100 in H2O, respectively. The samples were centrifuged, the supernatants were 8-fold diluted in PBS buffer and the optical densities (OD) were measured at 540 nm. The 100% lyses value (OD540H2O) gave an OD540 of approximately 0.5-1.0.
Percent hemolysis was calculated as follows: (OD540peptide/OD540H2O)×100%.

Structure (SMILES) | Pseudomonas aeruginosa ATCC 27853 MIC [1] | Acinetobacter baumannii DSM 30008 MIC [2] | Escherichia coli ATCC 25922 MIC [3] | Klebsiella pneumoniae SSI #3010 MIC [4] | Hemolysis at 100 μg/mL [5]
CC(C)C[C@@H]1NC(=O)[C@@H](CC(C)C)NC(=O)[C@H](CCN)NC(=O)[C@@H](NC(=O)[C@H](CCN)NC(=O)[C@@H](NC(=O)[C@H](CCN)NC(=O)CNC(=O)[C@@H]2CCSSC[C@H](NC(=O)[C@@H](N)Cc3c[nH]c4ccccc34)C(=O)N[C@@H](C(C)C)C(=O)N[C@@H](C)C(=O)N[C@@H](CO)C(=O)N3CCC[C@@H]3C(=O)N3CCC[C@H]3C(=O)N[C@@H](CC(C)C)C(=O)N[C@@H](CO)C(=O)N[C@@H](Cc3ccc(O)cc3)C(=O)N2)[C@@H](C)O)CCNC(=O)[C@H]([C@@H](C)O)NC(=O)[C@H](CCN)NC(=O)[C@H](CCN)NC1=O [Ex. 134] (H-WCVAS[dP]PLSY[hCys]G[Dab]T[Dab][Dab][Dab][dL]L[Dab][Dab]T; disulfide 2-11; lactam 16-C) | 1 µg/mL | 0.125 µg/mL | 0.125 µg/mL | 0.25 µg/mL | <1%
CC(C)C[C@@H]1NC(=O)[C@H](CCN)NC(=O)[C@@H](CCN)NC(=O)[C@H](CO)NC(=O)[C@@H](NC(=O)[C@@H](NC(=O)[C@H](CCN)NC(=O)[C@@H](N)Cc2c[nH]c3ccccc23)C(C)C)CSSC[C@@H](C(=O)N[C@@H](Cc2ccc(O)cc2)C(=O)N[C@@H](CCN)C(=O)NCC(=O)N[C@@H](CCN)C(=O)N[C@H](C(=O)N[C@@H](CCN)C(=O)N[C@H]2CCNC(=O)[C@H]([C@@H](C)O)NC(=O)[C@H](CCN)NC(=O)[C@H](CCN)NC(=O)[C@H](CC(C)C)NC(=O)[C@@H](CC(C)C)NC(=O)[C@H](CCN)NC2=O)[C@@H](C)O)NC1=O [Ex. 163] (H-W[Dab]VCS[dDab][Dab]LCY[Dab]G[Dab]T[Dab][Dab][Dab][dL]L[Dab][Dab]T; disulfide 4-9; lactam 16-C) | 2 µg/mL | 1 µg/mL | 2 µg/mL | 2 µg/mL | <1%
CC(C)C[C@@H]1NC(=O)[C@@H](CC(C)C)NC(=O)[C@H](CCN)NC(=O)[C@@H](NC(=O)[C@H](CCN)NC(=O)[C@@H](NC(=O)[C@H](CCN)NC(=O)CNC(=O)[C@H](CCN)NC(=O)[C@H](Cc2ccc(O)cc2)NC(=O)[C@@H]2CSSC[C@H](NC(=O)[C@@H](NC(=O)[C@H](CCN)NC(=O)[C@@H](N)Cc3c[nH]c4ccccc34)C(C)C)C(=O)N[C@@H](CO)C(=O)N[C@H](C)C(=O)N3C[C@H](O)C[C@H]3C(=O)N[C@@H](CC(C)C)C(=O)N2)[C@@H](C)O)CCNC(=O)[C@H]([C@@H](C)O)NC(=O)[C@H](CCN)NC(=O)[C@H](CCN)NC1=O [Ex. 164] (H-W[Dab]VCS[dA][Hyp]LCY[Dab]G[Dab]T[Dab][Dab][Dab][dL]L[Dab][Dab]T; disulfide 4-9; lactam 16-C) | 0.5 µg/mL | 0.25 µg/mL | 0.0625 µg/mL | 0.5 µg/mL | <1%
CC(C)C[C@@H]1NC(=O)[C@@H](CC(C)C)NC(=O)[C@H](CCN)NC(=O)[C@@H](NC(=O)[C@H](CCN)NC(=O)[C@@H](NC(=O)[C@H](CCN)NC(=O)CNC(=O)[C@H](CCN)NC(=O)[C@H](Cc2ccc(O)cc2)NC(=O)[C@@H]2CSSC[C@H](NC(=O)[C@H](Cc3ccc(O)cc3)NC(=O)[C@H](CCN)NC(=O)[C@@H](N)Cc3c[nH]c4ccccc34)C(=O)N[C@@H](CO)C(=O)N3CCC[C@@H]3C(=O)N3CCC[C@H]3C(=O)N[C@@H](CC(C)C)C(=O)N2)[C@@H](C)O)CCNC(=O)[C@H]([C@@H](C)O)NC(=O)[C@H](CCN)NC(=O)[C@H](CCN)NC1=O [Ex. 165] (H-W[Dab]YCS[dP]PLCY[Dab]G[Dab]T[Dab][Dab][Dab][dL]L[Dab][Dab]T; disulfide 4-9; lactam 16-C) | 1 µg/mL | 2 µg/mL | 0.5 µg/mL | 1 µg/mL | 1%
CC(C)C[C@@H]1NC(=O)[C@H](CCCNC(=N)N)NC(=O)[C@@H](CCN)NC(=O)[C@H](C(C)C)NC(=O)[C@@H](NC(=O)[C@H](Cc2ccc(O)cc2)NC(=O)[C@H](CCN)NC(=O)[C@@H](N)Cc2c[nH]c3ccccc23)CSSC[C@@H](C(=O)N[C@@H](Cc2ccc(O)cc2)C(=O)N[C@@H](CCN)C(=O)NCC(=O)N[C@@H](CCN)C(=O)N[C@H](C(=O)N[C@@H](CCN)C(=O)N[C@H]2CCNC(=O)[C@H]([C@@H](C)O)NC(=O)[C@H](CCN)NC(=O)[C@H](CCN)NC(=O)[C@H](CC(C)C)NC(=O)[C@@H](CC(C)C)NC(=O)[C@H](CCN)NC2=O)[C@@H](C)O)NC1=O [Ex. 166] (H-W[Dab]YCV[dDab]RLCY[Dab]G[Dab]T[Dab][Dab][Dab][dL]L[Dab][Dab]T; disulfide 4-9; lactam 16-C) | 2 µg/mL | 2 µg/mL | 2 µg/mL | 2 µg/mL | 3%
CC(C)C[C@@H]1NC(=O)[C@@H](CC(C)C)NC(=O)[C@H](CCN)NC(=O)[C@@H](NC(=O)[C@H](CCN)NC(=O)[C@@H](NC(=O)[C@H](CCN)NC(=O)CNC(=O)[C@H]2NC(=O)[C@H](Cc3ccc(O)cc3)NC(=O)[C@H](CO)NC(=O)[C@H](CC(C)C)NC(=O)[C@@H]3CCCN3C(=O)[C@H]3CCCN3C(=O)[C@H](CO)NC(=O)[C@H](C)NC(=O)[C@H](C(C)C)NC(=O)[C@@H](NC(=O)[C@H](Cc3c[nH]c4ccccc34)NC(=N)N)C(C)(C)SSC2(C)C)[C@@H](C)O)CCNC(=O)[C@H]([C@@H](C)O)NC(=O)[C@H](CCN)NC(=O)[C@H](CCN)NC1=O [Ex. 174] (NαAmidinoTrp-[Pen]VAS[dP]PLSY[Pen]G[Dab]T[Dab][Dab][Dab][dL]L[Dab][Dab]T; disulfide 1-10; lactam 15-C) | 2 µg/mL | 0.5 µg/mL | 0.25 µg/mL | 0.5 µg/mL | 1%
CC(C)C[C@@H]1NC(=O)[C@@H](CC(C)C)NC(=O)[C@H](CCN)NC(=O)[C@@H](NC(=O)[C@H](CCN)NC(=O)[C@@H](NC(=O)[C@H](CCN)NC(=O)CN(C)C(=O)[C@@H]2CSSC[C@H](NC(=O)[C@@H](N)Cc3c[nH]c4ccccc34)C(=O)N[C@@H](C(C)C)C(=O)N[C@@H](C)C(=O)N[C@@H](CO)C(=O)N3CCC[C@@H]3C(=O)N3CCC[C@H]3C(=O)N[C@@H](CC(C)C)C(=O)N[C@@H](CO)C(=O)N[C@@H](Cc3ccc(O)cc3)C(=O)N2)[C@@H](C)O)CCNC(=O)[C@@H](C(C)C)NC(=O)[C@H](CCN)NC(=O)[C@H](CCN)NC1=O [Ex. 180] (H-WCVAS[dP]PLSYC[Sar][Dab]T[Dab][Dab][Dab][dL]L[Dab][Dab][dV]; disulfide 2-11; lactam 16-C) | 1 µg/mL | 0.25 µg/mL | 0.125 µg/mL | 0.125 µg/mL | <1%
CC(C)C[C@@H]1NC(=O)[C@@H](CC(C)C)NC(=O)[C@H](CCN)NC(=O)[C@@H](NC(=O)[C@H](CCN)NC(=O)[C@@H](NC(=O)[C@H](CCN)NC(=O)CN(C)C(=O)[C@@H]2CSSC[C@H](NC(=O)[C@@H](N)Cc3c[nH]c4ccccc34)C(=O)N[C@@H](C(C)C)C(=O)N[C@@H](C)C(=O)N[C@@H](CO)C(=O)N3CCC[C@@H]3C(=O)N3CCC[C@H]3C(=O)N[C@@H](CC(C)C)C(=O)N[C@@H](CO)C(=O)N[C@@H](Cc3ccc(O)cc3)C(=O)N2)[C@@H](C)O)CCNC(=O)[C@H](CCCNC(=N)N)NC(=O)[C@H](CCN)NC(=O)[C@H](CCN)NC1=O [Ex. 181] (H-WCVAS[dP]PLSYC[Sar][Dab]T[Dab][Dab][Dab][dL]L[Dab][Dab]R; disulfide 2-11; lactam 16-C) | 0.5 µg/mL | 0.125 µg/mL | 0.0625 µg/mL | 0.125 µg/mL | <1%
